Test results reported in publication PMC8151276, “An Integrated Approach toward NanoBRET Tracers for Analysis of GPCR Ligand Engagement” (Molecules, 2021).

Key:
Format in all cases: binding
ADORA1 = biological target: T1, ADORA1 (Homo sapiens, UniProt P30542); test: NanoBRET screen HiBiT-ADORA1 in HEK293
T1 construct: purchased Promega (in-house HiBiT-GPCR construct library, NanoBRET)
T1 sequence (P30542 1-326): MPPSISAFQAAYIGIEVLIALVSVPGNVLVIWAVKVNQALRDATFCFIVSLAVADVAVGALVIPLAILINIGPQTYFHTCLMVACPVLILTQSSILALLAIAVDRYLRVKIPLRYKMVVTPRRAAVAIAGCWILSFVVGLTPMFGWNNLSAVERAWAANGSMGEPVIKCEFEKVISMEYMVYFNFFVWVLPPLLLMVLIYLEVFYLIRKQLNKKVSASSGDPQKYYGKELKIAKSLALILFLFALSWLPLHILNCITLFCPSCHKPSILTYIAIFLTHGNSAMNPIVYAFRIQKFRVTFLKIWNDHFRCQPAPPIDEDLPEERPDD
Method: (§1) Each tracer candidate was screened across the entire library of HiBiT-GPCR constructs using NanoBRET as the detection modality. As depicted in Figure 4A, the specificity of interactions was evaluated through decrease in BRET due to competitive displacement of a bound tracer by excess parental compound. Each tracer was analyzed for binding to each HiBiT-GPCR fusion in the absence and in the presence of competing parental compound. Briefly, HEK293 cells were transfected with HiBiT-GPCR constructs diluted into promoterless DNA to reduce expression and maximize translocation to the cell surface. Each tracer candidate was then screened at concentrations of 1 μM and 0.1 μM across cells expressing these fusions. Cells were treated for 1.5 h with tracer either alone or in the presence of 20 μM competing parental compound (i.e., control). BRET was measured upon addition of purified LgBiT and subsequent complementation with HiBiT genetically fused to a GPCR. The specificity of interactions was assessed through a decrease in BRET signal due to competitive displacement of the bound tracer. To further gauge the robustness of these interactions, the fold response over the control (i.e., BRETtracer/BRETcontrol) was calculated. We chose a 1.5-fold response, which translates to ≥7-fold signal over noise as the minimal threshold required to score an interaction as positive. […]. Below we highlight the screening results obtained for our exemplary fluorescent tracers based on Clozapine, Amitriptyline and AZD1283.
(§2) HiBiT-GPCR DNA constructs were diluted in 10 mM Tris pH 8 to a final concentration of 0.01 μg/μL, arrayed in 96-well plates and stored at −20 °C. For transfection, HEK293 cells were suspended in Opti-MEM (without phenol red) supplemented with 2% fetal bovine serum (Seradigm) and 100 units/mL penicillin–streptomycin (Gibco) at a final concentration of 220,000 cells/mL and dispensed into white 96-well plates at 90 μL/well. Subsequent transfections and screens were carried using an Agilent Bravo Automated Liquid Handling Platform. First, the 96-well HiBiT DNA arrays were diluted 25-fold in Opti-MEM (without serum or phenol red) to a final concentration of 0.0004 μg/μL and 20 μL of the diluted DNAs were transferred into new 96-well plates. Next, promoterless carrier DNA (1 μg/μL) was diluted 25-fold (0.04 μg/μL) and then dispensed into the diluted arrays at 20 μL/well. Following brief mixing, Viafect transfection reagent (Promega) diluted 16-fold into Opti-MEM was dispensed into the plates at 40 μL/well. After mixing by pipetting, plates were incubated for 10 min on the pipetting station deck. The DNA-transfection reagent complexes were then added to plates containing cells. To facilitate the screen, 10 μL of DNA-transfection reagent complexes were added in duplicates to the top 4 and bottom 4 rows, resulting in two identical 48-well arrays per plate. Plates with transfected cells were incubated for 18–20 h at 37 °C/5% CO2. A screen of each tracer across the entire library using two different concentrations requires duplicate plates of transfected cells. Depending on the number of tracers being screened, transfections can be scaled up using the same ratios. The next day, for each tracer, four 20× screening solutions in tracer dilution buffer (Promega) were prepared: two duplicates at final concentration of 20 μM and two duplicates at a final concentration of 2 μM. A competing unmodified compound was added to one of each duplicate at a final concentration of 400 μM. The four resulting solutions were diluted 4-fold in Opti-MEM without serum or phenol red to generate 5× solutions (5 µM and 0.5 µM tracer +/− 100 μM competing compound). To screen the library, a BioTek MultiFlo FX liquid dispenser was used to dispense 22.5 µL of tracer solution to the top 4 rows and 22.5 µL tracer + competing compound solution to the 4 bottom rows. Plates were briefly mixed on an orbital shaker and incubated for 1.5 h at room temperature. […]

CXCR2 = biological target: T2, CXCR2 (Homo sapiens, UniProt P25025); test: NanoBRET screen HiBiT-CXCR2 in HEK293
T2 construct: purchased Promega (in-house HiBiT-GPCR construct library, NanoBRET)
T2 sequence (P25025 1-360): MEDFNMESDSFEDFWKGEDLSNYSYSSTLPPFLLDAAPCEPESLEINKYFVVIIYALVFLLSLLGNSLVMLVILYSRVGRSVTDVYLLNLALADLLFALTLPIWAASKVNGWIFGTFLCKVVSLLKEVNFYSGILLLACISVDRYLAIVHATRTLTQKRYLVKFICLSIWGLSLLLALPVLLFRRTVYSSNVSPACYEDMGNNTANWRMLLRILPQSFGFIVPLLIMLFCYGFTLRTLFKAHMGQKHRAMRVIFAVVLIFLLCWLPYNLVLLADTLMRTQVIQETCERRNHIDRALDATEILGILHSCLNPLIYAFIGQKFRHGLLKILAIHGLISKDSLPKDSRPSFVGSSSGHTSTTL
Method: as §1, §2

CXCR5 = biological target: T3, CXCR5 (Homo sapiens, UniProt P32302); test: NanoBRET screen HiBiT-CXCR5 in HEK293
T3 construct: purchased Promega (in-house HiBiT-GPCR construct library, NanoBRET)
T3 sequence (P32302 1-372): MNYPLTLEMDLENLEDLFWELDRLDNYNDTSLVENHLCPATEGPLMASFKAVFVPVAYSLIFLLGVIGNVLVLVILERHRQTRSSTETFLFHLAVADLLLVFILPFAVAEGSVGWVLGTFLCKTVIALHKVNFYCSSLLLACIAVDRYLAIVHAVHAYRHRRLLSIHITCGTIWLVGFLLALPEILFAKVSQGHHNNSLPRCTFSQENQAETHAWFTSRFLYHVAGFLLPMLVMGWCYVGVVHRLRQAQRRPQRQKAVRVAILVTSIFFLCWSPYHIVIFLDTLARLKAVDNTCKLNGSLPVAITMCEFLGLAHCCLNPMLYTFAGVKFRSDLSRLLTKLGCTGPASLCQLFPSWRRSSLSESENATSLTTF
Method: as §1, §2

PTGIR = biological target: T4, PTGIR (Homo sapiens, UniProt P43119); test: NanoBRET screen HiBiT-PTGIR in HEK293; conditions: PTGIR
T4 construct: purchased Promega (in-house HiBiT-GPCR construct library, NanoBRET)
T4 sequence (P43119 whole entry): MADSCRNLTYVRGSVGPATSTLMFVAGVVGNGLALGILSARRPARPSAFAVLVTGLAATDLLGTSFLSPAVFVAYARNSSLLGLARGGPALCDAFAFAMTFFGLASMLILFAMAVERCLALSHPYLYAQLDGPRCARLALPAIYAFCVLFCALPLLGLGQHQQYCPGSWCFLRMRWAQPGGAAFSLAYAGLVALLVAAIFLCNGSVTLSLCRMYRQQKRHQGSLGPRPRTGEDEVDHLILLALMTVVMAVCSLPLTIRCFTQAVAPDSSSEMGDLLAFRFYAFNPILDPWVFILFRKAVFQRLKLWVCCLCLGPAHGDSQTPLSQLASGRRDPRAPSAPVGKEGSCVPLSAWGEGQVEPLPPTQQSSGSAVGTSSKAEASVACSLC
Method: as §1, §2

GRM1 = biological target: T5, GRM1 (Homo sapiens, UniProt Q13255); test: NanoBRET screen HiBiT-GRM1 in HEK293; conditions: GRM1
T5 construct: purchased Promega (in-house HiBiT-GPCR construct library, NanoBRET)
T5 sequence (Q13255 19-1194): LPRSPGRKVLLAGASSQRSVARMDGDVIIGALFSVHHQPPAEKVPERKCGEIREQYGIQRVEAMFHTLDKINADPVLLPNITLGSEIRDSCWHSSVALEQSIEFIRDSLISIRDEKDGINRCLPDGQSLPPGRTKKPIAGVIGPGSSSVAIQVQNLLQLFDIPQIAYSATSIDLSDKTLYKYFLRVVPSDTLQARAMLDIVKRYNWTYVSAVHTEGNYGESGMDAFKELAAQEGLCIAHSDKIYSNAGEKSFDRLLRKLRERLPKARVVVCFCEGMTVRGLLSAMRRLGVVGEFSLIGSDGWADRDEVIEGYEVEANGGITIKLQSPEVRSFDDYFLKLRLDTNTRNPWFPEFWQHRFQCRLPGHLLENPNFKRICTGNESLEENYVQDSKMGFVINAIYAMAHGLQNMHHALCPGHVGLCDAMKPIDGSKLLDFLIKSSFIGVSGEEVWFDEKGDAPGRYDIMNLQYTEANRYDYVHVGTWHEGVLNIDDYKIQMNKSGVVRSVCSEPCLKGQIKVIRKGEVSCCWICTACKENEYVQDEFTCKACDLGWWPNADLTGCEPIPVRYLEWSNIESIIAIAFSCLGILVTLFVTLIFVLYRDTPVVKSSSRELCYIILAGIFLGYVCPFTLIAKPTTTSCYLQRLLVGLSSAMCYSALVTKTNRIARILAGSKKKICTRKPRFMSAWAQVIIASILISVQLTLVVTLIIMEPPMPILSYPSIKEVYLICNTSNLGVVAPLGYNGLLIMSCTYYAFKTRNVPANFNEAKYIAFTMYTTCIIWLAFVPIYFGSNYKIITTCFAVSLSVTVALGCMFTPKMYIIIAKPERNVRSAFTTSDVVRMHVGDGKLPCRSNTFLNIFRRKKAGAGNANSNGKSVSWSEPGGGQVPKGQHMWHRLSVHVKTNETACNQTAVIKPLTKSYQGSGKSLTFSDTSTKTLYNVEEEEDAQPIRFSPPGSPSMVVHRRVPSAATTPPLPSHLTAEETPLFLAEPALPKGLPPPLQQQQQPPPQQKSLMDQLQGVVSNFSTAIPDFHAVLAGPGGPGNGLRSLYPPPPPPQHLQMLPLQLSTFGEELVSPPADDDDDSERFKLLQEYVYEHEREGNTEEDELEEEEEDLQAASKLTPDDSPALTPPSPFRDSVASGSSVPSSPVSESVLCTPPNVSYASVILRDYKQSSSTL
Method: as §1, §2

[1] = tracer at 1μM, listed as amitriptyline-b-2-NB590
[2] = tracer at 0.1μM, listed as amitriptyline-b-2-NB590

Row | Structure (SMILES) | NanoBRET Fold Response (ADORA1; ADORA1, tracer 0.1μM) | NanoBRET Fold Response (ADORA1; ADORA1, tracer 1μM) | NanoBRET Fold Response (CXCR2; CXCR2, tracer 0.1μM) | NanoBRET Fold Response (CXCR2; CXCR2, tracer 1μM) | NanoBRET Fold Response (CXCR5; CXCR5, tracer 0.1μM) | NanoBRET Fold Response (CXCR5; CXCR5, tracer 1μM) | NanoBRET Fold Response (PTGIR; tracer 0.1μM) | NanoBRET Fold Response (PTGIR; tracer 1μM) | NanoBRET Fold Response (GRM1; tracer 0.1μM) | NanoBRET Fold Response (GRM1; tracer 1μM) | other results
1 | Cc1nc2n(c(=O)c1CCN1CCC(c3noc4cc(F)ccc34)CC1)CCCC2OC(=O)NCCOCCOCCOCCOCCNC(=O)CCc1ccc2n1[B-](F)(F)[N+]1=C(c3ccc[nH]3)C=CC1=C2 (stereo not shown) [Risperidone-2-NB590] | 1.04 | 1.05 | 1.09 | 0.99 | 1.10 | 0.93 | 1.02 | 1.01 | 0.97 | 0.84 | –
2 | CCOC(=O)c1cc(C#N)c(N2CCC(C(=O)NS(=O)(=O)Cc3ccccc3/C=C/C(=O)NCCNC(=O)CCc3ccc4n3[B-](F)(F)[N+]3=C(c5ccc[nH]5)C=CC3=C4)CC2)nc1C [AZD1283-1-NB590] | – | – | – | – | – | – | – | – | – | – | NanoBRET Fold Response (ADORA1; ADORA1, 0.1μM): 1.18; NanoBRET Fold Response (ADORA1; ADORA1, 1μM): 1.07; NanoBRET Fold Response (CXCR2; CXCR2, 0.1μM): 0.99; NanoBRET Fold Response (CXCR2; CXCR2, 1μM): 1.03; NanoBRET Fold Response (CXCR5; CXCR5, 0.1μM): 1.04; NanoBRET Fold Response (CXCR5; CXCR5, 1μM): 1.12; NanoBRET Fold Response (PTGIR; 0.1μM): 1.04; NanoBRET Fold Response (PTGIR; 1μM): 1.07; NanoBRET Fold Response (GRM1; 0.1μM): 1.28; NanoBRET Fold Response (GRM1; 1μM): 0.71
3 | Cc1cc2c(s1)Nc1ccccc1N=C2N1CCN(CCCNC(=O)CCOCCOCCOCCOCCNC(=O)CCc2ccc3n2[B-](F)(F)[N+]2=C(c4ccc[nH]4)C=CC2=C3)CC1 [Olanzapine-a-2-NB590] | 1.09 | 1.22 | 0.97 | 1.08 | 0.98 | 0.86 | 0.99 | 0.98 | 0.89 | 1.26 | –
4 | COc1ccccc1N1CCN(CCCCN2C(=O)c3ccc(CNC(=O)CCOCCNC(=O)c4ccc(CNC(=O)CCc5ccc6n5[B-](F)(F)[N+]5=C(c7ccc[nH]7)C=CC5=C6)cc4)cc3C2=O)CC1 [NAN-190-3-NB590] | 1.07 | 0.89 | 1.10 | 0.86 | 1.37 | 0.68 | 0.95 | 1.01 | 1.03 | 1.12 | –
5 | CC(C)N(CC[C@H](c1ccccc1)c1cc(CCNC(=O)CCOCCOCCOCCOCCNC(=O)CCc2ccc3n2[B-](F)(F)[N+]2=C(c4ccc[nH]4)C=CC2=C3)ccc1O)C(C)C [Tolterodine-2-NB590] | 0.95 | 0.99 | 0.96 | 0.98 | 1.31 | 1.00 | 1.07 | 1.12 | 0.94 | 0.81 | –
6 | CN(C)CCC=C1c2ccccc2CCc2ccc(C(=O)NCCNC(=O)CCOCCOCCOCCOCCNC(=O)CCc3ccc4n3[B-](F)(F)[N+]3=C(c5ccc[nH]5)C=CC3=C4)cc21 [Amitriptyline-b-2-NB590] | – | – | – | – | – | – | 0.99 | 0.98 | 0.77 | 0.97 | NanoBRET Fold Response (ADORA1; [1]): 1.01; NanoBRET Fold Response (CXCR2; [2]): 0.97; NanoBRET Fold Response (CXCR2; [1]): 0.83; NanoBRET Fold Response (CXCR5; [2]): 1.39; NanoBRET Fold Response (CXCR5; [1]): 1.19
7 | O=C(CCOCCOCCOCCOCCNC(=O)CCc1ccc2n1[B-](F)(F)[N+]1=C(c3ccc[nH]3)C=CC1=C2)NCCCN1CCN(C2=Nc3ccccc3Oc3ccc(Cl)cc32)CC1 [Loxapine-a-2-NB590] | 1.13 | 1.04 | 1.06 | 0.98 | 0.29 | 0.90 | 0.99 | 1.04 | 0.93 | 0.59 | –
8 | CN(C)CCC=C1c2ccccc2CCc2ccc(C(=O)NCCNC(=O)CCOCCOCCOCCOCCNC(=O)CCc3ccc4n3[B-](F)(F)[N+]3=C(c5ccc[nH]5)C=CC3=C4)cc21 [Amitriptyline-a-2-NB590] | – | – | – | – | – | – | – | – | – | – | NanoBRET Fold Response (ADORA1; tracer at 0.1μM): 1.11; NanoBRET Fold Response (ADORA1; tracer at 1μM): 1.02; NanoBRET Fold Response (CXCR2; tracer at 0.1μM): 0.99; NanoBRET Fold Response (CXCR2; tracer at 1μM): 1.00; NanoBRET Fold Response (CXCR5; tracer at 0.1μM): 1.04; NanoBRET Fold Response (CXCR5; tracer at 1μM): 1.01
9 | O=C(CCc1ccc2n1[B-](F)(F)[N+]1=C(c3ccc[nH]3)C=CC1=C2)NCCOCCOCCNC(=O)OCCOCCN1CCN(C2=Nc3ccccc3Sc3ccccc32)CC1 [Quetiapine-a-2-NB590] | 1.30 | 1.07 | 1.03 | 0.97 | 1.01 | 0.92 | 1.03 | 0.94 | 0.74 | 1.00 | –
10 | CN(CCC=C1c2ccccc2CCc2ccccc21)C(=O)CCOCCOCCOCCOCCNC(=O)CCc1ccc2n1[B-](F)(F)[N+]1=C(c3ccc[nH]3)C=CC1=C2 [Amitriptyline-e-2-NB590] | – | – | – | – | – | – | – | – | – | – | NanoBRET Fold Response (ADORA1; tracer at 1μM): 1.08; NanoBRET Fold Response (CXCR2; tracer at 1μM): 1.07; NanoBRET Fold Response (CXCR5; tracer at 1μM): 0.98
